According to PubChem BioAssay (NCI):
Where “and” joins values, the source holds several entries; their conditions need not be identical. Identical values can stand only once.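 Five compound concentrations were applied to cells in 96-well plates for 48 hours; endpoints were derived by simple linear interpolation of the resulting dose-response curve. GI50: concentration for 50% inhibition of growth. TGI: total growth inhibition.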

Tests used:
Test in all cases: DTP human tumour cell line panel, 48 h
A549 NSCLC = tested on: A549 NSCLC
ACHN renal = tested on: ACHN renal
BT-549 breast = tested on: BT-549 breast
CAKI-1 renal = tested on: CAKI-1 renal
M14 melanoma = tested on: M14 melanoma
OVCAR-3 ovarian = tested on: OVCAR-3 ovarian
OVCAR-8 ovarian = tested on: OVCAR-8 ovarian
RPMI-8226 leukemia = tested on: RPMI-8226 leukemia
SF-539 CNS = tested on: SF-539 CNS
UO-31 renal = tested on: UO-31 renal

| SMILES | GI50 (A549 NSCLC) | TGI (A549 NSCLC) | GI50 (ACHN renal) | TGI (ACHN renal) | GI50 (BT-549 breast) | TGI (BT-549 breast) | GI50 (CAKI-1 renal) | TGI (CAKI-1 renal) | GI50 (M14 melanoma) | TGI (M14 melanoma) | GI50 (OVCAR-3 ovarian) | TGI (OVCAR-3 ovarian) | GI50 (OVCAR-8 ovarian) | TGI (OVCAR-8 ovarian) | GI50 (RPMI-8226 leukemia) | TGI (RPMI-8226 leukemia) | GI50 (SF-539 CNS) | TGI (SF-539 CNS) | GI50 (UO-31 renal) | TGI (UO-31 renal) |
| --- | --- | --- | --- | --- | --- | --- | --- | --- | --- | --- | --- | --- | --- | --- | --- | --- | --- | --- | --- | --- |
| CCOc1cc(C(C)(C)C)ccc1C1=N[C@H](c2ccc(Cl)cc2)[C@H](c2ccc(Cl)cc2)N1C(=O)N1CCN(CC#Cc2cccc3c2CN([C@@H]2CCC(=O)NC2=O)C3=O)CC1 | 1.1 µM | > 43.1 µM | 1.24 µM | 12.4 µM | 0.317 µM | 19.8 µM | 0.215 µM | 9.59 µM | 1.46 µM | > 47.3 µM | 2.81 µM | 15.9 µM | 0.157 µM | > 31.8 µM | 2.3 µM | > 100 µM | 4.49 µM | > 100 µM | 0.236 µM | 2 µM |
| CN(C)CCC(=O)N1C/C(=C\c2ccc(Cl)c(Cl)c2)C(=O)/C(=C/c2ccc(Cl)c(Cl)c2)C1 |  | 2.05 µM |  | 1.05 µM |  | 1.7 µM |  | 0.984 µM |  | 0.979 µM |  | 0.93 µM |  | 0.752 µM |  | 0.485 µM |  | 0.832 µM |  | 0.862 µM |
| C#CC1(O)C(COP(=O)(O)OCC(COP(=O)(O)OCC2OC(n3cc(F)c(=O)[nH]c3=O)CC2O)OCCCCCCCCCCCCCCCCCC)OC(n2ccc(N)nc2=O)C1O (stereo unspecified) | 0.117 µM | > 68.3 µM | 0.149 µM | > 100 µM | 0.155 µM | 5.41 µM | 0.0293 µM | 1.16 µM | 0.215 µM | 6.45 µM | 0.448 µM |  | 0.169 µM | > 36.5 µM | 0.111 µM | > 100 µM | < 0.01 µM | 3.33 µM | 0.461 µM |  |
| O=C(NC(=O)c1c(F)cccc1F)Nc1cccc(Oc2ncc(Cl)cn2)c1 |  | > 100 µM |  | > 100 µM |  | > 100 µM |  | > 100 µM |  | > 100 µM |  | > 100 µM |  | > 100 µM |  | > 100 µM |  | > 100 µM |  | > 100 µM |
| NC(CSC(c1ccccc1)(c1ccccc1)c1ccccc1)C(=O)NCC(=O)O (stereo unspecified) | 8 µM | > 100 µM | 18.9 µM | > 100 µM | 10.1 µM | > 100 µM | 37.1 µM | > 100 µM | 3.73 µM | 23.2 µM | 5.15 µM | 37.2 µM | 5.35 µM | > 100 µM | 3.42 µM | 24.5 µM | 2.54 µM | 7.46 µM | 31.3 µM | > 100 µM |
| N[C@H](C(=O)O)[C@@H]1CC(Cl)=NO1 | 6.06 µM | 678 µM | 28.4 µM | > 1000 µM | 7.4 µM | > 1000 µM | 23.9 µM | 160 µM | 38.9 µM | > 1000 µM | 31.4 µM | 469 µM | 22.2 µM | 502 µM | 11.1 µM | 811 µM | 25.4 µM | 916 µM | 26.6 µM | 772 µM |
| C=CC(=O)N1CCC(Oc2cc3c(Nc4ccc(Cl)c(Cl)c4F)ncnc3cc2OC)CC1 | 3.12 µM and 1.6 µM | 19.9 µM and > 10 µM | < 0.001 µM | 14.9 µM and > 10 µM | 1.9 µM and 2.23 µM | 13.4 µM and > 10 µM |  | 12.6 µM and 2.36 µM | 4 µM and 3.1 µM | 20.2 µM and > 10 µM | 2.63 µM and 1 µM | 16.5 µM and > 8.17 µM | 4.52 µM and 1.91 µM | 28.6 µM and > 10 µM | 6.49 µM and 3.93 µM | 42.6 µM and > 10 µM | 1.57 µM and 1.78 µM | 10 µM and 8.4 µM | 0.0493 µM and 0.0566 µM | 4.75 µM and 3.72 µM |
| Cn1c(Cl)c(/C=C2/C(=O)Nc3ccccc32)c2ccccc21 | 6.58 µM | > 63 µM | 1.15 µM | 18.8 µM | 0.243 µM | 3.87 µM | 0.603 µM | 17.9 µM | 0.248 µM | 5.46 µM | 0.204 µM | 1.26 µM | 1.7 µM | > 37.1 µM | 0.582 µM | 4.6 µM | 0.17 µM | 1.06 µM | 3.39 µM | 44.7 µM |
| NCCCNCCS |  | > 100 µM |  | > 100 µM |  | > 100 µM |  | > 100 µM |  | > 100 µM |  | > 100 µM |  | > 100 µM | > 100 µM and 20.6 µM | > 100 µM |  | > 100 µM |  | > 100 µM |
| Cc1cn(-c2cc(NC(=O)c3cccc(C#Cc4cccc5[nH]nc(N)c45)c3)cc(C(F)(F)F)c2)cn1 | 10.4 µM | 35.2 µM | 3.86 µM | 16 µM | 5.21 µM | 80.4 µM | 4.23 µM | 16.6 µM | 2.48 µM | 17.4 µM | 11.1 µM | 83.1 µM | 4.99 µM | 36.3 µM | 4.54 µM | > 100 µM | 1.3 µM | 14.3 µM | 2.79 µM | 26.5 µM |
| CCOc1cccc(/C=N/NC(=O)c2cccc(Nc3ccnc(C(F)(F)F)c3)c2)c1O | 3.73 µM | > 100 µM | 0.699 µM | > 50.3 µM | 1.44 µM | 36.5 µM | 0.772 µM | 32 µM | 1.22 µM | 7.88 µM | 0.401 µM | 24.4 µM | 1.12 µM | 37 µM | 2.16 µM | > 100 µM | 1.32 µM | 10.6 µM | 0.717 µM | 26.2 µM |
| CC(=O)OC1OC([C@H]2c3cccc(O)c3C(=O)c3c(O)cc(C)cc32)C(O)C(O)C1O (stereo partly specified) | 0.0479 µM | 15.1 µM | 0.0729 µM | 0.437 µM | 0.356 µM | 1.03 µM | 0.0773 µM | 0.544 µM | < 0.0214 µM | 3.85 µM | 0.029 µM | 0.0885 µM | 0.0294 µM | 0.0873 µM | 0.0779 µM | 0.2 µM | 0.121 µM | 7.08 µM | 0.138 µM |  |
| Nc1ncnc2c1ncn2C1C=C(CO)C(O)C1O (stereo unspecified) |  | > 100 µM |  | 66.9 µM |  | > 100 µM |  | > 93.6 µM |  | > 100 µM |  | > 85.2 µM |  | > 100 µM |  | > 37 µM |  | > 91.1 µM |  | 19.9 µM |
| Cc1cc(N(CC(C)Br)CC(C)Br)ccc1N=Nc1ccccc1C(=O)O (stereo unspecified) |  | 19.9 µM |  | 13.5 µM |  | 26.5 µM |  | 6.9 µM |  | 20.1 µM |  | 47.2 µM |  | > 52.4 µM |  | 7.24 µM |  | 4.39 µM |  | 37.5 µM |
| COc1ccc(C(C#N)NC23CC4CC(CC(C4)C2)C3)cc1 (stereo unspecified) |  | > 100 µM |  | > 100 µM |  | > 100 µM |  | > 100 µM |  | > 100 µM |  | > 100 µM |  | > 100 µM |  | > 100 µM |  | > 100 µM |  | > 100 µM |
| O=C(/C=C/c1ccccc1)Nc1ncc(Cc2ccccc2Cl)s1 | 0.469 µM | > 100 µM | 0.612 µM | > 100 µM | 0.945 µM | > 100 µM | 0.329 µM | > 100 µM | 0.236 µM | > 100 µM | 0.226 µM | 0.63 µM | 0.509 µM | > 100 µM | 0.335 µM |  | 0.223 µM | 0.634 µM | 0.614 µM | > 100 µM |
| CS(=O)(=O)CCNCc1coc(-c2ccc3ncnc(Nc4ccc(OCc5ccccc5)cc4)c3c2)c1 | 5.65 µM | > 22 µM | 3.69 µM | 17.1 µM | 10.9 µM | > 25 µM | 3.98 µM | 13.4 µM | 4.44 µM | 9.11 µM | 3.46 µM | 13.7 µM | 8.66 µM | > 25 µM | 4.86 µM | 11.6 µM | 4.25 µM | 8.82 µM | 2.86 µM | 6.95 µM |
| O=C(O)CSCCc1ccccc1 |  | > 100 µM |  | > 100 µM |  | > 100 µM |  | > 100 µM |  | > 100 µM |  | > 100 µM |  | > 100 µM |  | > 100 µM |  | > 100 µM |  | > 100 µM |
| CSC(SC)(C(=O)O)c1cc(-c2c(Cl)cccc2Cl)no1 |  | > 100 µM |  | > 100 µM |  | > 100 µM |  | > 100 µM |  | > 100 µM |  | > 100 µM |  | > 100 µM |  | 50.4 µM |  | > 100 µM |  | 92.2 µM |
| Oc1ccc2ccccc2c1N=Nc1cccc2ccccc12 |  | > 100 µM |  | > 100 µM |  | > 100 µM |  | > 100 µM |  | > 100 µM |  | > 100 µM |  | > 100 µM |  | > 100 µM |  | 76.3 µM |  | > 100 µM |
| Cc1cc(Cl)ccc1OCC(=O)Nc1nc2c(Cl)cccc2s1 | 16.7 µM | 42 µM | 43.3 µM | > 100 µM | > 100 µM | > 100 µM | > 100 µM | > 100 µM | > 100 µM | > 100 µM | 28.1 µM | 93.8 µM | 15.9 µM | 29.4 µM | 18.7 µM | > 100 µM | 17.4 µM | > 100 µM | > 100 µM | > 100 µM |
